Assay results taken from patent US10759826B2, “15β-substituted estrone derivatives as selective inhibitors of 17β-hydroxysteroid-dehydrogenases, method of preparation and use thereof” (USTAV ORGANICKE CHEMIE A BIOCHEMIE AV CR, V.V.I., priority 2016, dated 2020).

Assays:
[1] = target: T1, 17βHSD5 (Homo sapiens, UniProt P42330); details: cited from earlier work; for IC50: literature
T1 sequence (P42330 1-323): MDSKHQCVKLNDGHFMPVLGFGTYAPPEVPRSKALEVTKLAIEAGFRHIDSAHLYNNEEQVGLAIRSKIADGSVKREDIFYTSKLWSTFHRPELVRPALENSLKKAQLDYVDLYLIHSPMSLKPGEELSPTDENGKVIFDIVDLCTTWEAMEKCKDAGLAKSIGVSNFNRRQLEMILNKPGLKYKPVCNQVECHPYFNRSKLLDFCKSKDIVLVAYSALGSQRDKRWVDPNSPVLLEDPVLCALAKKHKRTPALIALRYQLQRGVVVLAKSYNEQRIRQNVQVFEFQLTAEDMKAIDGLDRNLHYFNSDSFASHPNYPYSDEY

[2] = target: T2, human 17βHSD type 1 (Homo sapiens, UniProt P14061); assay: Inhibition of recombinant 17βHSD type 1, tritium-labeled substrate conversion; assay type: biochemical; details: for inhibition at 0.1 µM: 0.1 μmol · l^−1 test substance; for inhibition at 0.1 µM / inhibition at 1 µM: read-out: % of inhibition of human 17βHSD1; for inhibition at 1 µM: 1 μmol · l^−1 test substance; for IC50: read-out: 17βHSD1 IC50
T2 construct: made in house; expressing system suspended in buffer, not purified
T2 sequence (P14061 1-328): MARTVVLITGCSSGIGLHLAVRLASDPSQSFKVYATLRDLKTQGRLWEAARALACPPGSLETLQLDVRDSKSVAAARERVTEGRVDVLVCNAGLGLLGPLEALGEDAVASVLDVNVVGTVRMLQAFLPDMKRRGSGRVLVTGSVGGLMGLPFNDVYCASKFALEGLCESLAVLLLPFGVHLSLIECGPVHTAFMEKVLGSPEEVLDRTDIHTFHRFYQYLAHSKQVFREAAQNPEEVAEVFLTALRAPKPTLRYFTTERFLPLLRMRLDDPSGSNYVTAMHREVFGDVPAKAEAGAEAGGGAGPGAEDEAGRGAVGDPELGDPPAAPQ
Protocol: (§1) The inhibitory activity of the test substances was determined for individual isoenzymes from the 17βHSD family, specifically these were the types 1, 2, 3, 4, 5 and 7. Escherichia coli and mammalian cells expression systems were used for recombinant expression of individual isozymes of human 17βHSD. Only in the case of 17HSD5 the enzyme was partially purified and supernatant obtained by centrifugation of the bacterial lysate was used for testing. Systems expressing specific 17βHSD type were suspended in a reaction buffer and incubated with tritium-labeled substrates and respective cofactors at 37° C. in two parallel tests: the control arrangement (DMSO without the inhibitor) and the test arrangement (DMSO with the inhibitor). DMSO serves as a negative control in this case. After 20-30% of the substrate was converted by the activity of the enzyme to the product in a control test, both tests were terminated. Substrate and product from the test arrangement were isolated by SPE (solid phase extraction), and then separated by reverse phase HPLC. Substrate conversion was determined by integration of the signals of the substrate and product, and was expressed in %. For the purposes of the subsequent calculation of enzyme inhibition, the conversion of the control test was designated as 0% inhibition. All tests were performed in triplicates. IC50 values were subsequently determined by a standard method using the “One Ligand Binding” model of SigmaPlot kinetics module (Schustera et. al. J. Ster. Biochem. Mol. Biol. 2011, 125, 148; Möller et. al. Biioorg. Med. Chem. Lett. 2009, 19, 6740; Möller et. al. PLoS One, 2010, 5, 6, e10969).

[3] = system: BJ; assay: MTT cytotoxicity assay, BJ fibroblasts; assay type: cell-based; details: Homo sapiens, non-tumor fibroblasts
From the text: (§2) Compounds 5, 6, 7, 9, 14 and 15 were used for evaluation of antitumor activity. MTT cytotoxicity assay was used in vitro on cell lines derived from normal tissues and from tumors. Specifically, these were the K562 line (human myeloid leukemia), K562-Tax (human myeloid leukemia resistant to taxol and overexpressing PgP protein for multidrug resistance), CEM (T-lymphoblastic leukemia), CEM-DNR bulk (T-lymphoblastic leukemia resistant doxorubicin, lacking the expression of the target gene for inhibitors of topoisomerase II alpha), A549 line (human lung adenocarcinoma), HCT116p53 wt (human colon cancer), HCT116p53−/− (human colon cancer, mutant p53), U2OS line of human osteosarcoma and two fibroblast lines MRC5 and BJ as examples of non-tumor cells. Expression characteristics, profiles of susceptibility to classical antitumor drugs and methodology of the MTT cytotoxicity assay were repeatedly published (e.g. Noskova et al. Neoplasma 2002, 49, 418; S̆arek et. al. J. Med. Chem. 2003, 46, 25, 5402).

[4] = system: CEM; assay: MTT cytotoxicity assay, CEM; assay type: cell-based; details: Homo sapiens, CCRF-CEM
From the text: as §2

[5] = system: K562; assay: MTT cytotoxicity assay, K562; assay type: cell-based; details: Homo sapiens
From the text: as §2

[6] = target: T3, human 17βHSD1 (Homo sapiens, UniProt P14061); assay: 17βHSD inhibition in CHO cells transfected with human 17βHSD1, E1 in supernatant; assay type: cell-based; parameters: expressed in transfected cells; details: 10 μmol·l^−1
T3 sequence (P14061 1-328): T2 sequence (P14061 1-328)
Protocol: (§3) For this experiment, non-cytotoxic concentrations of estrone derivative (10 μmol·l^−1) were used. E1 levels were determined by an immuno-enzymatic assay.

[7] = system: K562-Tax; assay: MTT cytotoxicity assay, K562-Tax; assay type: cell-based; details: Homo sapiens
From the text: as §2

[8] = target: T4, human 17βHSD type 5 (Homo sapiens, UniProt P42330); assay: Inhibition of recombinant 17βHSD type 5, tritium-labeled substrate conversion; assay type: biochemical; details: 1 μmol · l^−1 test substance
T4 construct: made in house; host or cells: bacteria (Escherichia coli); supernatant of the lysate
T4 sequence (P42330 1-323): T1 sequence (P42330 1-323)
Protocol: as §1

[9] = system: MRCS; assay: MTT cytotoxicity assay, MRC5 fibroblasts; assay type: cell-based; details: Homo sapiens, Fibroblast, non-tumor fibroblasts
From the text: as §2

[10] = system: A549; assay: MTT cytotoxicity assay, A549; assay type: cell-based; details: Homo sapiens
From the text: as §2

[11] = system: HCT116p53 wt; assay: MTT cytotoxicity assay, HCT116p53 wt; assay type: cell-based; details: Homo sapiens
From the text: as §2

[12] = system: HCT116p53-/-; assay: MTT cytotoxicity assay, HCT116p53-/-; assay type: cell-based; details: Homo sapiens
From the text: as §2

[13] = system: CEM-DNR-bulk; assay: MTT cytotoxicity assay, CEM-DNR-bulk; assay type: cell-based
From the text: as §2

[14] = system: U2OS; assay: MTT cytotoxicity assay, U2OS; assay type: cell-based; details: Homo sapiens
From the text: as §2

[15] = target: T3, human 17βHSD1; assay: 17βHSD inhibition in MCF-7 cells transfected with human 17βHSD1, E1 in supernatant; assay type: cell-based; parameters: expressed in transfected cells; host or cells: MCF-7; details: 10 μmol·l^−1
Protocol: as §3

[16] = target: T5, estrogen receptor α (ERα) (Homo sapiens, UniProt P03372); assay: ERα luciferase reporter assay in U2OS cells; assay type: cell-based; details: testing range 10 μmol·l^−1 to 1 nmol·l^−1
T5 construct: expressed in transfected cells
T5 sequence (P03372 1-595): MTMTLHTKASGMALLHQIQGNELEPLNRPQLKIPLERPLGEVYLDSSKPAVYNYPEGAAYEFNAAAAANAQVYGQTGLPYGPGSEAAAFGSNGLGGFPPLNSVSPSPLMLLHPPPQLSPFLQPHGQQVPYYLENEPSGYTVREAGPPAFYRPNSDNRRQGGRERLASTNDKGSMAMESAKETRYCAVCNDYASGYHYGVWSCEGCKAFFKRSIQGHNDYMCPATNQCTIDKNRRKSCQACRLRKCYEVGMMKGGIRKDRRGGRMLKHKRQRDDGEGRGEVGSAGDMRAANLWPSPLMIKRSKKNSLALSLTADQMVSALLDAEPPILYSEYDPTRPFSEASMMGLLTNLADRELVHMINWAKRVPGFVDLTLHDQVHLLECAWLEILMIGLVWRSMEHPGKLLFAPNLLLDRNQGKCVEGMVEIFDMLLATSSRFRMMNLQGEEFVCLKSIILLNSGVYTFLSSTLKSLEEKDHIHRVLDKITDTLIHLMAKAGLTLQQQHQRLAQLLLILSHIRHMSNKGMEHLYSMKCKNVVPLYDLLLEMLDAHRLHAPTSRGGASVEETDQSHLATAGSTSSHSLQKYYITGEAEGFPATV

Row | Compound | IC50 [1] [µM] | inhibition at 0.1 µM [2] [%] | inhibition at 1 µM [2] [%] | IC50 [2] [µM] | IC50 [3] [µM] | IC50 [4] [µM] | IC50 [5] [µM] | E1 in supernatant, CHO ([6]; 8 hr.) [pg/mL] | E1 in supernatant, CHO ([6]; 24 hr.) [pg/mL] | IC50 [7] [µM] | % of inhibition of human 17βHSD5 [8] [%] | IC50 [9] [µM] | IC50 [10] [µM] | IC50 [11] [µM] | melting point [°C] | IC50 [12] [µM] | IC50 [13] [µM] | IC50 [14] [µM] | E1 in supernatant, MCF-7 ([15]; 8 hr.) [pg/mL] | E1 in supernatant, MCF-7 ([15]; 24 hr.) [pg/mL] | other results
1 | 3-deoxyestradiol with C-17-dimethyl-spiro-δ-lactone | 0.0029 | – | – | – | – | – | – | – | – | – | – | – | – | – | – | – | – | – | – | – | –
2 | C[C@]12CC[C@@H]3c4ccc(O)cc4CC[C@H]3[C@@H]1[C@H](CCc1ccc(F)cc1)CC2=O [Compound 5, 15β-(4-Fluorophenethyl)-3-hydroxy-estra-1,3,5(10)-trien-17-one] | – | 72 | 92 | 0.055 | 24.3 | 25.2 | 25.2 | 3194 | 1576 | 19.3 | 70 | 18.4 | 35.8 | 29.2 | 164 | 30.5 | 28.2 | 30.4 | 3373 | 2236 | –
3 | C[C@]12CC[C@@H]3c4ccc(O)cc4CC[C@H]3[C@@H]1[C@H](CCc1ccc(Cl)cc1)CC2=O [Compound 6, 15β-(4-Chlorophenethyl)-3-hydroxy-estra-1,3,5(10)-trien-17-one] | – | 90 | 97 | 0.009 | 28.8 | 16.3 | 26.9 | 4137 | 1804 | 13.2 | 90 | 21 | 35.8 | 29.3 | 168 | 30.8 | 24.6 | 27.9 | 4251 | 3323 | –
4 | COC(=O)c1ccc(CC[C@@H]2CC(=O)[C@@]3(C)CC[C@@H]4c5ccc(O)cc5CC[C@H]4[C@H]23)cc1 [Compound 7, Methyl 4-(2-(3-hydroxy-estra-1,3,5(10)-trien-17-on-15β-yl)ethyl)benzoate] | – | 84 | 99 | 0.016 | > 50 | 25.6 | > 50 | 2101 | 1476 | 12.5 | 63 | > 50 | > 50 | > 50 | 139 | > 50 | 32.8 | > 50 | 1921 | 1839 | ER antagonism in words [16]: ER antagonist
5 | Cc1ccc(CC[C@@H]2CC(=O)[C@@]3(C)CC[C@@H]4c5ccc(O)cc5CC[C@H]4[C@H]23)cc1 [Compound 15, 3-Hydroxy-15β-(4-methylphenethyl)-estra-1,3,5(10)-trien-17-one] | – | 87 | 100 | 0.008 | 27.9 | 21.7 | 23.8 | 750 | 554 | 13.8 | 86 | 19.6 | 28.2 | 28.3 | 159 | 29.4 | 24.1 | 28.9 | 719 | 948 | –
6 | CC1(C)CCC2(CCC3C4CCc5cc(C(N)=O)ccc5C4CCC32C)OC1=O [EM1404, 3-carboxamido-1,3,5-(10)-estratrien-17(R)-spiro-2-(5,5-dimethyl-6-oxo)tetra-hydro-pyran] | 0.0032 | – | – | – | – | – | – | – | – | – | – | – | – | – | – | – | – | – | – | – | Ki ([1]; Qiu et al. 2007, WO9946279): 0.0069 µM
